{
  "source": "patent US9073916B2",
  "about": "“Prodrug forms of kinase inhibitors and their use in therapy” (AUCKLAND UNISERVICES LIMITED, priority 2009, dated 2015)",
  "key": {"erbB1^T790M": {"target": "erbB1^T790M (Homo sapiens, UniProt P00533, T790M)", "sequence (P00533 25-1210 T790M)": "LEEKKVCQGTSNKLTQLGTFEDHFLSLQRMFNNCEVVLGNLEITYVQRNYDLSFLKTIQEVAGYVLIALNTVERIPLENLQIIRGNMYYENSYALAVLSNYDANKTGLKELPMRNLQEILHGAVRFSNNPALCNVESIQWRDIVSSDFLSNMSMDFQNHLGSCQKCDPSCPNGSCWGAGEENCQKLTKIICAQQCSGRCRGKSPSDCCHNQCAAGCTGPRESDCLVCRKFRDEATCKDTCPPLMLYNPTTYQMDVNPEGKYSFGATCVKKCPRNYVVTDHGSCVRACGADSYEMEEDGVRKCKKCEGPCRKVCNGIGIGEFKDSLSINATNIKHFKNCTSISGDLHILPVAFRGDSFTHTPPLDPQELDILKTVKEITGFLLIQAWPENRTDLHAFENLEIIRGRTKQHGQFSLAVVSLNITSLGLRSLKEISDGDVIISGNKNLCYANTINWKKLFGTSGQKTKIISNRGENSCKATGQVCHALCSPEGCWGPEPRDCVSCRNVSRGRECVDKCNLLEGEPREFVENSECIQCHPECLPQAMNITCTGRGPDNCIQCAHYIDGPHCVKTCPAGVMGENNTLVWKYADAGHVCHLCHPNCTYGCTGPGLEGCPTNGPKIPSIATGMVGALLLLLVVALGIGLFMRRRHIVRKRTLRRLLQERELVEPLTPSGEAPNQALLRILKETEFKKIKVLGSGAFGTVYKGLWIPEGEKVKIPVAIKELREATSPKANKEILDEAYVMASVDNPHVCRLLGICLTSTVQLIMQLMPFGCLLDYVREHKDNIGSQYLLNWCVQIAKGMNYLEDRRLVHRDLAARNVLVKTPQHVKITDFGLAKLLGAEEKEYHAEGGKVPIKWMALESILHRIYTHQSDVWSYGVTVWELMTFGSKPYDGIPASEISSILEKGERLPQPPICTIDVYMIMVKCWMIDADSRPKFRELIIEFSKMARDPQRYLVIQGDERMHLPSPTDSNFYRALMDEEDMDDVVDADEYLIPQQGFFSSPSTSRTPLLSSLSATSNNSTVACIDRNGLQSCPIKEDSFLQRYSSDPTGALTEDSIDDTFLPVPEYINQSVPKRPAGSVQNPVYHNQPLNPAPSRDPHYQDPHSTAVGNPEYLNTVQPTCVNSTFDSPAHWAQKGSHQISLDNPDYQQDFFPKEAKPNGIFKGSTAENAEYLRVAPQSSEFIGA", "experiment": "Isolated enzyme inhibition (Invitrogen Z′-LYTE kinase assay)", "format": "biochemical", "conditions": "10 μM ATP, duplicate"}, "erbB1 [1]": {"target": "T1, erbB1 (Homo sapiens, UniProt P00533)", "T1 sequence (P00533 25-1210)": "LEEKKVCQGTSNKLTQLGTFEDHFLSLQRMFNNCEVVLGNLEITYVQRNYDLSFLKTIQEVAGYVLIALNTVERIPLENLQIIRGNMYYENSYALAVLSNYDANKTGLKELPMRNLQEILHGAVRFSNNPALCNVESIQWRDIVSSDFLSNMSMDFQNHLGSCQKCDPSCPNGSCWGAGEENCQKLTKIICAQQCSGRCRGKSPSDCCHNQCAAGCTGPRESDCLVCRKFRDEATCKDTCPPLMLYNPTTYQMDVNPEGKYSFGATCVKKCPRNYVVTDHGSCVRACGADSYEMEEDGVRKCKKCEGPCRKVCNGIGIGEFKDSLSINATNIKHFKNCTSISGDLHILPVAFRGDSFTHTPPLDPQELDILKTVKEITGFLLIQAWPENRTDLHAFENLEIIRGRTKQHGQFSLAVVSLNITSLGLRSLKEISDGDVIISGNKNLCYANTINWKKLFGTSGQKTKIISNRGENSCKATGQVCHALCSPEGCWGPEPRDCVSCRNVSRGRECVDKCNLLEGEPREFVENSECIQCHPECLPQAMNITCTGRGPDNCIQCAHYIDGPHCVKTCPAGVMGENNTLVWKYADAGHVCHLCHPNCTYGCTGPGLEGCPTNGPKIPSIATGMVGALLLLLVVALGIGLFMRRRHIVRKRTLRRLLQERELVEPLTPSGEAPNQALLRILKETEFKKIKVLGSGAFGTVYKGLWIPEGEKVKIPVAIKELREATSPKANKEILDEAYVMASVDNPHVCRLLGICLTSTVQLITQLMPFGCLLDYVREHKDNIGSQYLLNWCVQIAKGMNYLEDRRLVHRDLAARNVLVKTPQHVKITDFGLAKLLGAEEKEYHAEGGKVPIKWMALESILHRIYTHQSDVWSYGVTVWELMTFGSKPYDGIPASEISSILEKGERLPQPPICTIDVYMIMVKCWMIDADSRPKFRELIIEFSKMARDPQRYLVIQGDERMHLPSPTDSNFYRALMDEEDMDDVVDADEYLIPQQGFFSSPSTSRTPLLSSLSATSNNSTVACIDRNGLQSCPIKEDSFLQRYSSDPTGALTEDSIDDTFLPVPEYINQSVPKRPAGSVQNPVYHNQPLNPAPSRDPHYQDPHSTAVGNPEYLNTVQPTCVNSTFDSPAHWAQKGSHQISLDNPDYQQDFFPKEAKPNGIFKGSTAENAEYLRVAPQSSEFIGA", "experiment": "Isolated enzyme inhibition (Invitrogen Z′-LYTE kinase assay)", "format": "biochemical", "conditions": "10 μM ATP, duplicate"}, "erbB1 [2]": {"target": "T1, erbB1", "experiment": "Cellular erbB1 inhibition: irreversibility wash-out assay in A431 cells", "conditions": "1 μM, 1 hour exposure, then EGF stimulation"}, "erbB2 [3]": {"target": "T2, erbB2 (Homo sapiens, UniProt P04626)", "T2 sequence (P04626 23-1255)": "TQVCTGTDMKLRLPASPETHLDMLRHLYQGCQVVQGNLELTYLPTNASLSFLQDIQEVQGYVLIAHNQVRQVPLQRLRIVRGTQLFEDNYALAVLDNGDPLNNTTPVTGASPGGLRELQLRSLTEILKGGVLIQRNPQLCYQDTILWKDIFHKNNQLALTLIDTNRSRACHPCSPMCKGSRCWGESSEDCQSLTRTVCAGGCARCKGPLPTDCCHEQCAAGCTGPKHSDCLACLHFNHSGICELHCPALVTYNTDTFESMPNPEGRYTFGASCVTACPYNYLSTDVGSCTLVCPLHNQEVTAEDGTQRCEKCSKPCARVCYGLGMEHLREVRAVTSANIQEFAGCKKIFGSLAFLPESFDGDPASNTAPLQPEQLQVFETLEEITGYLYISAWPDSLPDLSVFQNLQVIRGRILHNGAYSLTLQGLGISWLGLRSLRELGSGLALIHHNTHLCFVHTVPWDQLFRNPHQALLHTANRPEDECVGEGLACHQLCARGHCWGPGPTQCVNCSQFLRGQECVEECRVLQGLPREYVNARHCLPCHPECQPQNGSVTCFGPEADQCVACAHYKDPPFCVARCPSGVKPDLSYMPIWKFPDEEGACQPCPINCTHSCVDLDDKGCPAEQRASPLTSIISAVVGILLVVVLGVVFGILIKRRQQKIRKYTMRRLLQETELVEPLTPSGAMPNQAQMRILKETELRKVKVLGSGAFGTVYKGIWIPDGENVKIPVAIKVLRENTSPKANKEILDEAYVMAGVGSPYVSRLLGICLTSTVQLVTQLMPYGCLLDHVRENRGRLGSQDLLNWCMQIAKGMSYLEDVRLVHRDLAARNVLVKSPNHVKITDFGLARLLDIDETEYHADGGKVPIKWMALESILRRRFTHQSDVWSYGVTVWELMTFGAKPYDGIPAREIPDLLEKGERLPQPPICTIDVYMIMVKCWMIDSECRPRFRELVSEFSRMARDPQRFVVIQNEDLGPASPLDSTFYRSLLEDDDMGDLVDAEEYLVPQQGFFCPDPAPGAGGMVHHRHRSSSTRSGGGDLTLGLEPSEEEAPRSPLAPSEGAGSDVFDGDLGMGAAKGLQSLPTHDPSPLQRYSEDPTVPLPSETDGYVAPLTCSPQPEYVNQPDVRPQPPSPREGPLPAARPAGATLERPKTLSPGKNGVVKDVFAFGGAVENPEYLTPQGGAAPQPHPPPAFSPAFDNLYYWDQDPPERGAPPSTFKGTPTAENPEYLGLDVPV", "experiment": "Isolated enzyme inhibition (Invitrogen Z′-LYTE kinase assay)", "format": "biochemical", "conditions": "10 μM ATP, duplicate"}, "erbB4": {"target": "erbB4 (Homo sapiens, UniProt Q15303)", "sequence (Q15303 26-1308)": "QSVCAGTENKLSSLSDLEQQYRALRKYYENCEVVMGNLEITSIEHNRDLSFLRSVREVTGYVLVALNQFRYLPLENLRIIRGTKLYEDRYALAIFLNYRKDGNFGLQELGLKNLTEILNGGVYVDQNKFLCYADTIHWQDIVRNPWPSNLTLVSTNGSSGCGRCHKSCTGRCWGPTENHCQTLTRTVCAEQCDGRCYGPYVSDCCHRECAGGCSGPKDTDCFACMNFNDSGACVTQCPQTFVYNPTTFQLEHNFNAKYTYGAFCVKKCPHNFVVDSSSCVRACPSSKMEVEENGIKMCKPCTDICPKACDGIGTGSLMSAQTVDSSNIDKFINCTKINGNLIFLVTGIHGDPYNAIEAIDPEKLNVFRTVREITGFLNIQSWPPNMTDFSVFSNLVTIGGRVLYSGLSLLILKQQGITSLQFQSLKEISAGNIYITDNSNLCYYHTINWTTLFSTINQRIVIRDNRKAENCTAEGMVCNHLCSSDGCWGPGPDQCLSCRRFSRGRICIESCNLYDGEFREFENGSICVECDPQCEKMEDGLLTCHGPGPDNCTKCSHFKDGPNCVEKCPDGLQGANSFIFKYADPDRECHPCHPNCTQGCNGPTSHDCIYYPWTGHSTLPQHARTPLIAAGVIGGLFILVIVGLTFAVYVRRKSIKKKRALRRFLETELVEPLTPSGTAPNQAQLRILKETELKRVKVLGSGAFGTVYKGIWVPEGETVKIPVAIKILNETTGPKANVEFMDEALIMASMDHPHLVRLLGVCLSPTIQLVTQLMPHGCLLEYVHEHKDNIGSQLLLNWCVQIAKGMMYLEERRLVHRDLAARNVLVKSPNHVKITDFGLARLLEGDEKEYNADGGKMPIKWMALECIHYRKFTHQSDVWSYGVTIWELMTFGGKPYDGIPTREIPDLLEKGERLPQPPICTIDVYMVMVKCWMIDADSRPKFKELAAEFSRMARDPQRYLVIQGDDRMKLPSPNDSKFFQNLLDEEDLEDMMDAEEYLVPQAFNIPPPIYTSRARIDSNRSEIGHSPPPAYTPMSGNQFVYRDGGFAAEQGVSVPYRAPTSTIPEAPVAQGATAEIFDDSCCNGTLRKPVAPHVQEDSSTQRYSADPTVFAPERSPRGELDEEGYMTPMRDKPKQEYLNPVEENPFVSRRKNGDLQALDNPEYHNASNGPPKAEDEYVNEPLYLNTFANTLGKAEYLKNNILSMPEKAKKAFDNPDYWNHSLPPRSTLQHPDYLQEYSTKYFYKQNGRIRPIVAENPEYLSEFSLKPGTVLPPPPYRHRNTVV", "experiment": "Isolated enzyme inhibition (Invitrogen Z′-LYTE kinase assay)", "format": "biochemical", "conditions": "10 μM ATP, duplicate"}, "SKOV3 cells [4]": {"test_system": "SKOV3 cells", "experiment": "Oxic and hypoxic cellular metabolism of prodrug 20", "format": "in vitro ADME, Human", "conditions": "10 uM prodrug", "experimental": "(§1) A431 and SKOV3 cells were grown in a 175 flask and seeded at 40K, a density which gave an 80-90% confluent cell layer after 7 days growth. Cells were washed with PBS, harvested with 0.05% trypsin/EDTA, centrifuged at 1000 rpm for 5 mins at room temperature and re-suspended in a 1 mL of cell culture medium (α-MEM containing 10% FCS, 10 mM D-Glucose and 0.2 mM 2′-deoxycytidine). Cell numbers were determined with the Coulter counter and the appropriate number of cells was transferred to a new tube. 5×10^5 cells per well were plated into wells of a 24-well plate in a total volume of 350 μL/well (i.e. 14.3×10^5 cells/mL). Cells were incubated at 37° C. for two hours to attach to the wells and for anoxic samples to equilibrate. […] The cells were incubated for 1, 2 or 3 hours at 37° C. At the appropriate time the 24 well plate was removed from the incubator/anoxic chamber and placed on ice. The contents of each well was transferred to the microcentrifuge tube kept on ice. 800 μL of acetonitrile (spiked with D6 internal standards of compounds 11 and 20, each 0.5 uM) was added to each of the drug treated wells to allow efficient extraction from the cell monolayer. Then the entire contents (1200 uL=400+800 uL) was vortex mixed and transferred to −80° C. for storage until they were run on the LC-MS/MS system. A similar procedure was followed for the control samples. […]"}, "A431 cells": {"test_system": "A431 cells", "experiment": "Oxic and hypoxic cellular metabolism of prodrug 20", "format": "in vitro ADME, Human", "conditions": "10 uM prodrug", "experimental": "as §1"}, "[5]": {"experiment": "Hypoxia-selective reduction of prodrug 20 in cell free media", "format": "in vitro ADME", "conditions": "cell free media containing 5% fetal calf serum, hypoxic"}, "SW620 cells": {"test_system": "SW620 cells", "experiment": "Cellular growth inhibition (sulforhodamine B)", "format": "cell-based, Human", "conditions": "Table 3"}, "[6]": {"experiment": "Steady state radiolytic reduction by the CO2.− radical with HPLC-MS", "format": "physicochemical"}, "SKOV3 cells [7]": {"test_system": "SKOV3 cells", "experiment": "Cellular growth inhibition (sulforhodamine B)", "format": "cell-based, Human", "conditions": "Table 9; for IC50: Homo sapiens, SK-OV-3", "procedure": "Human A431, H1975 and SKOV3 carcinoma cells in log phase exponential growth in alpha minimal essential media (αMEM) containing 5% fetal bovine serum (FBS), were harvested by trypsinisation (1× trypsin/EDTA, Gibco Brl), counted, and seeded into 96 well plates (Nunc) at cell densities ranging from 800-1500 cells/well. Half of the cell samples were seeded into plates that were pre-equilibrated and held in an anoxic environment (90% N2, 5% H2, 5% CO2, 37° C.; Anaerobic chamber, Coy Laboratory Products). […] At the end of this period the anoxic plates were recovered from the anaerobic camber and held under normoxia in a standard CO2 incubator (37° C.) for 20 hours. All plates were washed free of compound and cells were allowed to proliferate for a further 4 days in αMEM containing 5% FBS+antibiotics. Cells were fixed in trichloroacteic acid (30 min), washed and stained with sulforhodamine B (SRB, 60 min) prior to washing in acidified water. SRB was solubilised and absorption read at 450 nm to calculate cell densities. Inhibition of proliferation was calculated relative to untreated control wells."}, "erbB2 [8]": {"target": "T2, erbB2", "experiment": "Inhibition of basal phospho-erbB2 in SKOV3 cells (Western blot)", "format": "cell-based", "parameters": "endogenous in cells; host or cells: SKOV3 human ovarian carcinoma cells", "conditions": "Table 8", "text": "Values are plotted using SigmaPlot 10."}, "[9]": {"experiment": "Plasma and tissue pharmacokinetics of prodrug 42 in H1975 tumour bearing mice", "format": "in vivo", "conditions": "female, NIH-III, mouse, 20 umol/kg, single iv dose of 42 at 20 μmol/kg", "experimental": "Compound 42 was dosed at a nominal low dose of 20 μmol/kg to nine female NIH-III mice bearing H1975 tumour xenografts, as a solution in DMSO/5% dextrose (20:80) via intravenous injection. […] The frozen powders were then collected in pre-weighed microcentrifuge tubes (kept on dry ice). Four volumes of ice cold acetonitrile (containing 0.5 μM D6-161 as an internal standard) was added to each sample to extract the drug from the tissue powder. […] To 10 μL of plasma (collected in EDTA) was added 40 μL of ice cold acetonitrile (containing 0.5 μM D6-161 as an internal standard). The resulting solution was mixed and then centrifuged at 13,000 rpm for 5 min."}, "in vivo": {"experiment": "in vivo", "conditions": "female, NIH-III nude, mouse, ip, pH 4"}, "[10]": {"conditions": "HPLC-MS at 0.95 reducing equivalents"}},
  "note": "Like-named read-outs stand apart in the source and are kept apart here.",
  "data": [
    {"compound": "Cn1cnc([N+](=O)[O-])c1C[N+](C)(C)C/C=C/C(=O)Nc1ccc2ncnc(Nc3cccc(Br)c3)c2c1.[Br-]", "note": "[Compound 20, (2E)-4-{[4-(3-bromoanilino)-6-quinazolinyl]amino}-N,N-dimethyl-N-[(1-methyl-4-nitro-1H-imidazol-5-yl)methyl]-4-oxo-2-buten-1-ammonium bromide]", "values": [
      {"measurement": "IC50", "setting": "erbB1^T790M", "result": 594, "unit": "nM"},
      {"measurement": "IC50", "setting": "erbB1 [1]", "result": 0.47, "unit": "nM"},
      {"measurement": "erbB1 autophosphorylation, cells not washed free of drug", "setting": "erbB1 [2]", "result": "not completely inhibited"},
      {"measurement": "IC50", "setting": "erbB2 [3]", "result": 112, "unit": "nM"},
      {"measurement": "IC50", "setting": "erbB4", "result": 85, "unit": "nM"},
      {"measurement": "rate of hypoxic metabolism to inhibitor 11", "setting": "SKOV3 cells [4]", "result": 500, "unit": "pmol/hour/million cells"},
      {"measurement": "rate of hypoxic metabolism to inhibitor 11", "setting": "A431 cells", "result": 200, "unit": "pmol/hour/million cells"},
      {"measurement": "rate of release of inhibitor 11", "setting": "[5]", "result": 62, "unit": "pmol/h"},
      {"measurement": "SW620 Deact.", "setting": "SW620 cells", "result": 18, "unit": "fold"},
      {"measurement": "SW620 HCR", "setting": "SW620 cells", "result": 3.1, "unit": "fold"},
      {"measurement": "IC50", "setting": "SW620 cells; 24 hour exposure entirely oxic, read-out: Cellular Growth Inhibition IC50 SW620 Oxic", "result": 63300, "unit": "nM"},
      {"measurement": "IC50", "setting": "SW620 cells; first 4 hours anoxic, read-out: Cellular Growth Inhibition IC50 SW620 Anoxic", "result": 20200, "unit": "nM"},
      {"measurement": "Effector release/Prodrug loss", "setting": "[6]; 0.95 reducing equivalents", "result": 1.00},
      {"measurement": "Detection of MNA (methyl nitroaromatic)", "setting": "[6]; HPLC-MS", "result": "Yes"},
      {"measurement": "% Loss of prodrug", "setting": "[6]; [10]", "result": 55, "unit": "%"},
      {"measurement": "% Release of effector", "setting": "[6]; [10]", "result": 55, "unit": "%"},
      {"measurement": "release of effector following 1-electron reduction", "setting": "[6]; steady state radiolysis, HPLC-MS", "result": "released effector (compound 11) detected"},
      {"measurement": "effector AUC as share of prodrug AUC", "setting": "compound 11 in plasma after dosing prodrug 20", "result": "one"},
      {"measurement": "AUC0-250 min Effector", "setting": "effector (compound 11) in plasma after dosing prodrug", "result": 2.7, "unit": "µM·h"},
      {"measurement": "AUC0-250 min Parent", "setting": "plasma, IP, 42% of single dose MTD, predicted from modelled curves", "result": 279, "unit": "µM·h"}
    ]},
    {"compound": "Cn1cnc([N+](=O)[O-])c1C[N+](C)(C)C/C=C/C(=O)Nc1cc2c(Nc3ccc(F)c(Br)c3)ncnc2cn1", "note": "[Compound 42, (2E)-4-{[4-(3-bromo-4-fluoroanilino)pyrido[3,4-d]pyrimidin-6-yl]amino}-N,N-dimethyl-N-[(1-methyl-4-nitro-1H-imidazol-5-yl)methyl]-4-oxo-2-buten-1-ammonium bromide]", "values": [
      {"measurement": "IC50", "setting": "SKOV3 cells [7]; 24 hour exposure oxic, read-out: Cellular Growth Inhibition IC50 SKOV3 Oxic", "result": 35500, "unit": "nM"},
      {"measurement": "IC50", "setting": "SKOV3 cells [7]; first 4 hours anoxic, read-out: Cellular Growth Inhibition IC50 SKOV3 Anoxic", "result": 2850, "unit": "nM"},
      {"measurement": "SKOV3 Deact.", "setting": "SKOV3 cells [7]", "result": 42, "unit": "fold"},
      {"measurement": "SKOV3 HCR", "setting": "SKOV3 cells [7]", "result": 20.3, "unit": "fold"},
      {"measurement": "Deact. erbB2 (fold reduction in cellular inhibition relative to the parent kinase inhibitor)", "setting": "erbB2 [8]; SKOV3 cells", "result": 35, "unit": "fold"},
      {"measurement": "IC50", "setting": "erbB2 [8]; basal phospho-erbB2 in SKOV3 cells, read-out: Cellular Enzyme Inhibition IC50 erbB2", "result": 212, "unit": "nM"},
      {"measurement": "AUC(0-t)", "setting": "[9]; H1975 tumour, read-out: AUC0-24 hr H1975 Tumour, 42", "result": 123, "unit": "µM·h"},
      {"measurement": "AUC(0-t)", "setting": "[9]; liver, read-out: AUC0-24 hr Liver, 42", "result": 256, "unit": "µM·h"},
      {"measurement": "AUC(0-t)", "setting": "[9]; plasma, read-out: AUC0-24 hr Plasma, 42", "result": 24.7, "unit": "µM·h"},
      {"measurement": "AUC(0-t)", "setting": "[9]; skin, read-out: AUC0-24 hr Skin, 42", "result": 198, "unit": "µM·h"},
      {"measurement": "MTD", "setting": "in vivo", "result": 133, "unit": "µmol/kg"}
    ]}
  ]
}
